Tests used:
[1] = Percent metabolized in an in vitro human liver microsomal incubation assay after 60 min; format: ADME, Microsome; details: liver microsomes, read-out: Metabolism
[2] = species: Cavia porcellus; assay: Inhibitory concentration against IKr current was measured in isolated guinea pig myocytes during a 0.5 s voltage clamp step from -50 to -10 mV; format: functional
[3] = species: Cavia porcellus; assay: Inhibitory concentration against IKs current was measured in isolated guinea pig myocytes during a 1 s voltage clamp step […]; format: functional
[4] = system: Canis familiaris; assay: QTc interval of compound was measured in chloralose anesthetized dogs(for its Class III activity in vivo) at dose of 0.001 mg/kg (iv); units are msec/square root of sec; format: functional, Canis lupus familiaris
[5] = system: Canis familiaris; assay: QTc interval of compound was measured in chloralose anesthetized dogs(for its Class III activity in vivo) at dose of 0.01 mg/kg (iv); units are msec/square root of sec; format: functional, Canis lupus familiaris
[6] = system: Canis familiaris; assay: QTc interval of compound was measured in chloralose anesthetized dogs(for its Class III activity in vivo) at dose of 0.1 mg/kg (iv); units are msec/square root of sec; format: functional, Canis lupus familiaris
[7] = system: Canis familiaris; assay: Ventricular relative Refractory period (msec) of compound was measured in chloralose anesthetized dogs (for its Class III activity in vivo) at dose of 0.01 mg/kg (iv); format: functional, Canis lupus familiaris, Heart
[8] = system: Canis familiaris; assay: Ventricular relative Refractory period (msec) of compound was measured in chloralose anesthetized dogs (for its Class III activity in vivo) at dose of 0.1 mg/kg (iv); format: functional, Canis lupus familiaris, Heart
[9] = system: Canis familiaris; assay: Ventricular relative Refractory period (msec) of compound was measured in chloralose anesthetized dogs (for its Class III activity in vivo) at dose of 0.001 mg/kg (iv); format: functional, Canis lupus familiaris, Heart

Row | Structure (SMILES) | IC50 [2] [nM] | IC50 [3] [nM] | further results
1 | CC(C)C1=NC(NC(=O)Cc2ccc(C(F)(F)F)cc2C(F)(F)F)C(=O)N(CC(F)(F)F)c2ccccc21 (configuration not stated) | > 1000 |  | metabolised at 1 h [1]: 70%; IC50 ([3]; Cavia porcellus): 6 nM
2 | CCCN1C(=O)C(NC(=O)Cc2ccc(C(F)(F)F)cc2C(F)(F)F)N=C(C2CC2)c2ccccc21 (single isomer, unassigned; (+)) | > 1000 | 165 | 
3 | CC[C@@H](C)N1C(=O)C(NC(=O)Cc2ccc(C(F)(F)F)cc2C(F)(F)F)N=C(C2CC2)c2ccccc21 (single isomer, unassigned; (+)) | > 1000 | 50 | 
4 | CC[C@@H](C)N1C(=O)C(NC(=O)Cc2ccc(C(F)(F)F)cc2C(F)(F)F)N=C(c2ccccc2)c2ccccc21 (single isomer, unassigned; (+)) |  | 3.7 | 
5 | O=C(Cc1ccc(C(F)(F)F)cc1C(F)(F)F)NC1N=C(C2CC2)c2ccccc2N(CC(F)(F)F)C1=O (single isomer, unassigned; (+)) | > 1000 |  | metabolised at 1 h [1]: ~15%; IC50 ([3]; Cavia porcellus): 1.5 nM
6 | CC[C@H](C)N1C(=O)C(NC(=O)Cc2ccc(C(F)(F)F)cc2C(F)(F)F)N=C(C2CC2)c2ccccc21 (single isomer, unassigned; (+)) |  | 180 | 
7 | CCCN1C(=O)C(NC(=O)Cc2ccc(C(F)(F)F)cc2C(F)(F)F)N=C(C2CC2)c2ccccc21 (single isomer, unassigned; (-)) |  | 1.2 | 
8 | CCN1C(=O)C(NC(=O)Cc2ccc(C(F)(F)F)cc2C(F)(F)F)N=C(C2CC2)c2ccccc21 (single isomer, unassigned; (-)) |  | 4 | 
9 | CC[C@@H](C)N1C(=O)C(NC(=O)Cc2ccc(C(F)(F)F)cc2C(F)(F)F)N=C(C2CC2)c2ccccc21 (single isomer, unassigned; (-)) |  | 0.08 | QTc Interval [4]: 384 ms s-1; QTc Interval [5]: 392 ms s-1; QTc Interval [6]: 454 ms s-1; Ventricular relative refractory period [7]: 180 ms; Ventricular relative refractory period [8]: 198 ms; Ventricular relative refractory period [9]: 176 ms
10 | CN1C(=O)C(NC(=O)Cc2ccc(C(F)(F)F)cc2C(F)(F)F)N=C(C2CC2)c2ccccc21 (single isomer, unassigned; (-)) | > 1000 | 280 | 
11 | CC[C@H](C)N1C(=O)C(NC(=O)Cc2ccc(C(F)(F)F)cc2C(F)(F)F)N=C(C2CC2)c2ccccc21 (single isomer, unassigned; (-)) | > 1000 | 0.4 | 
12 | CN1C(=O)C(NC(=O)Cc2ccc(C(F)(F)F)cc2C(F)(F)F)N=C(C2CC2)c2ccccc21 (stereo in doubt; 4 (+)) |  | 38 | 
13 | CCN1C(=O)C(NC(=O)Cc2ccc(C(F)(F)F)cc2C(F)(F)F)N=C(C2CC2)c2ccccc21 (stereo in doubt; 6 (+)) | > 1000 | 200 | 
14 | CC[C@@H](C)N1C(=O)C(NC(=O)Cc2ccc(C(F)(F)F)cc2C(F)(F)F)N=C(c2ccccc2)c2ccccc21 (stereo in doubt; 15 (-)) | > 1000 | 44 | 
15 | O=C(Cc1ccc(C(F)(F)F)cc1C(F)(F)F)N[C@@H]1N=C(c2ccccc2)c2ccccc2N(CC(F)(F)F)C1=O [L-768673] | 6000 |  | IC50 ([3]; Cavia porcellus): 6 nM

From ChEMBL document CHEMBL1136660, “Novel 5-cyclopropyl-1,4-benzodiazepin-2-ones as potent and selective I(Ks)-blocking class III antiarrhythmic agents” (Bioorg Med Chem Lett, 2003)
